Laboratory results from ChEMBL document CHEMBL4334449, “Jorunnamycin A from Xestospongia sp. Suppresses Epithelial to Mesenchymal Transition and Sensitizes Anoikis in Human Lung Cancer Cells” (J Nat Prod, 2019).
Activity calls are given as the source filed them.

Legend:
NCI-H460 [1] = experiment: Effect on total AKT protein level in human H460 cells under detachment conditions at 0.05 to 0.5 uM after 12 hrs by Western blot analysis; type: ADME, cell-based; conditions: nci-h460, 12 h
NCI-H23 [2] = experiment: Induction of anoikis in human H23 cells harboring with p53 mutant under detachment conditions assessed as decrease in BCL-2 level at 0.05 to 0.5 uM after 12 hrs by Western blot analysis; type: functional, cell-based
NCI-H460 [3] = experiment: Induction of anoikis in human H460 cells under detachment conditions assessed as increase in Bax level at 0.05 to 0.5 uM after 12 hrs by Western blot analysis; type: functional, cell-based
NCI-H292 [4] = experiment: Induction of apoptosis in human NCI-H292 cells under detachment conditions assessed as early apoptotic cells at 0.5 uM after 24 hrs by Annexin V-FITC/propidium iodide staining-based flow cytometric analysis (reference value: 29.96%); type: functional
NCI-H23 [5] = experiment: Induction of apoptosis in human H23 cells under detachment conditions assessed as viable cells at 0.5 uM after 24 hrs by Annexin V-FITC/propidium iodide staining-based flow cytometric analysis (reference value: 69.96%); type: functional; conditions: NCI-H23, 24 h, read-out: Activity
NCI-H23 [6] = experiment: Inhibition of epithelial-mesenchymal transition in human H23 cells harboring with p53 mutant under detachment conditions assessed as decrease in snail protein level 0.05 to 0.5 uM after 12 hrs by Western blot analysis; type: functional, cell-based
NCI-H292 [7] = experiment: Antiproliferative activity against human NCI-H292 cells assessed as reduction in cell viability at 0.05 to 0.5 uM; type: functional, cell-based
NCI-H23 [8] = experiment: Induction of anoikis in human H23 cells harboring with p53 mutant under detachment conditions assessed as effect on Bax level at 0.05 to 0.5 uM after 12 hrs by Western blot analysis; type: functional, cell-based
NCI-H23 [9] = experiment: Inhibition of colony formation in human H23 cells under detachment conditions assessed as reduction in size of colonies at 0.1 to 0.5 uM after 14 days by microscopic method; type: functional, cell-based
NCI-H460 [10] = experiment: Induction of anoikis in human H460 cells under detachment conditions at 0.05 to 0.5 uM after 24 hrs by Hoechst 33342/propidium iodide staining based fluorescent microscopic method; type: functional, cell-based
NCI-H292 [11] = experiment: Inhibition of colony formation in human NCI-H292 cells under detachment conditions assessed as reduction in number of colonies at 0.1 to 0.5 uM after 14 days by microscopic method; type: functional, cell-based
NCI-H460 [12] = experiment: Induction of anoikis in human H460 cells under detachment conditions assessed as decrease in MCL-1 level at 0.05 to 0.5 uM after 12 hrs by Western blot analysis; type: functional, cell-based
NCI-H23 [13] = experiment: Inhibition of epithelial-mesenchymal transition in human H23 cells harboring with p53 mutant under detachment conditions assessed as increase in E-cadherin protein level 0.05 to 0.5 uM after 12 hrs by Western blot analysis; type: functional, cell-based
NCI-H460 [14] = experiment: Inhibition of epithelial-mesenchymal transition in human H460 cells under detachment conditions assessed as decrease in snail protein level 0.05 to 0.5 uM after 12 hrs by Western blot analysis; type: functional, cell-based
NCI-H292 [15] = experiment: Inhibition of colony formation in human NCI-H292 cells under detachment conditions assessed as reduction in size of colonies at 0.1 to 0.5 uM after 14 days by microscopic method; type: functional, cell-based
NCI-H292 [16] = experiment: Induction of apoptosis in human NCI-H292 cells under detachment conditions assessed as necrotic cells at 0.5 uM after 24 hrs by Annexin V-FITC/propidium iodide staining-based flow cytometric analysis (reference value: 1.28%); type: functional
NCI-H460 [17] = experiment: Antiproliferative activity against human H460 cells under detachment conditions assessed as reduction in cell viability at 0.05 uM after 6 hrs by XTT assay; type: functional, cell-based
NCI-H460 [18] = experiment: Induction of anoikis in human H460 cells under detachment conditions assessed as decrease in BCL-2 level at 0.1 to 0.5 uM after 12 hrs by Western blot analysis; type: functional, cell-based
NCI-H460 [19] = experiment: Inhibition of epithelial-mesenchymal transition in human H460 cells under detachment conditions assessed as increase in E-cadherin protein level 0.05 to 0.5 uM after 12 hrs by Western blot analysis; type: functional, cell-based
NCI-H23 [20] = experiment: Induction of apoptosis in human H23 cells under detachment conditions assessed as late apoptotic cells at 0.5 uM after 24 hrs by Annexin V-FITC/propidium iodide staining-based flow cytometric analysis (reference value: 2.82%); type: functional
Homo sapiens [21] = species on record: Homo sapiens; experiment: Inhibition of ERK phosphorylation in human H460 cells under detachment conditions at 0.05 to 0.5 uM after 12 hrs by Western blot analysis; type: cell-based
NCI-H23 [22] = experiment: Inhibition of epithelial-mesenchymal transition in human H23 cells harboring with p53 mutant under detachment conditions assessed as increase in claudin-1 protein level 0.05 to 0.5 uM after 12 hrs by Western blot analysis; type: functional, cell-based
NCI-H460 [23] = experiment: Down regulation of caveolin-1 human H460 cells under detachment conditions at 0.05 to 0.5 uM after 12 hrs by Western blot analysis; type: functional, cell-based
NCI-H23 [24] = experiment: Antiproliferative activity against human H23 cells under detachment conditions assessed as reduction in cell viability at 0.05 to 0.5 uM up to 24 hrs by XTT assay; type: functional, cell-based
NCI-H460 [25] = experiment: Inhibition of epithelial-mesenchymal transition in human H460 cells under detachment conditions assessed as increase in claudin-1 protein level 0.05 to 0.5 uM after 12 hrs by Western blot analysis; type: functional, cell-based
Homo sapiens [26] = species on record: Homo sapiens; experiment: Inhibition of ERK phosphorylation in human H23 cells harboring with p53 mutant under detachment conditions at 0.05 to 0.5 uM after 12 hrs by Western blot analysis; type: cell-based
NCI-H460 [27] = experiment: Antiproliferative activity against human H460 cells under detachment conditions assessed as reduction in cell viability at 0.1 to 0.5 uM after 3 hrs by XTT assay; type: functional, cell-based
NCI-H292 [28] = experiment: Induction of apoptosis in human NCI-H292 cells under detachment conditions assessed as late apoptotic cells at 0.5 uM after 24 hrs by Annexin V-FITC/propidium iodide staining-based flow cytometric analysis (reference value: 28.21%); type: functional
NCI-H23 [29] = experiment: Down regulation of caveolin-1 human H23 cells harboring with p53 mutant under detachment conditions at 0.05 to 0.5 uM after 12 hrs by Western blot analysis; type: functional, cell-based
NCI-H460 [30] = experiment: Effect on total ERK protein level in human H460 cells under detachment conditions at 0.05 to 0.5 uM after 12 hrs by Western blot analysis; type: ADME, cell-based; conditions: nci-h460, 12 h

COC1=C(C)C(=O)C2=C(C1=O)[C@@H]1[C@@H]3CC4=C(C(=O)C(OC)=C(C)C4=O)[C@H](CO)N3[C@@H](C#N)[C@H](C2)N1C [JOURNNAMYCIN A]
0.4%: Activity (NCI-H292 [16])
inactive: Activity (NCI-H292 [7]) | Activity (NCI-H23 [8])
Non-Toxic: Activity (NCI-H460 [1]) | Activity (NCI-H460 [30])
44.6%: viability at 0.5 µM (NCI-H23 [5])
17.1%: Activity (NCI-H23 [20])
45.68%: Activity (NCI-H292 [4])
active: Activity (NCI-H23 [2]) | Activity (NCI-H460 [3]) | inhibition (NCI-H23 [6]) | inhibition (NCI-H23 [9]) | Activity (NCI-H460 [10]) | inhibition (NCI-H292 [11]) | Activity (NCI-H460 [12]) | inhibition (NCI-H23 [13]) | inhibition (NCI-H460 [14]) | inhibition (NCI-H292 [15]) | Activity (NCI-H460 [17]) | Activity (NCI-H460 [18]) | inhibition (NCI-H460 [19]) | inhibition (Homo sapiens [21]) | inhibition (NCI-H23 [22]) | Activity (NCI-H460 [23]) | Activity (NCI-H23 [24]) | inhibition (NCI-H460 [25]) | inhibition (Homo sapiens [26]) | Activity (NCI-H460 [27]) | Activity (NCI-H23 [29])
28.13%: Activity (NCI-H292 [28])
